Measurements taken from patent US20230116972A1, “CD38 MODULATORS AND METHODS OF USE THEREOF” (Cytokinetics, Inc., priority 2021, published 2023).

Experiments:
[1] = biological target: T1, human CD38 (Homo sapiens, UniProt P28907); experiment: human recombinant CD38 enzyme assay (hydrolysis of NAD+); format: biochemical; conditions: human recombinant CD38, 0.4 nM enzyme, 62.5 μM NAD+; read-out: hCD38 BioChem IC50
T1 sequence (P28907 1-300): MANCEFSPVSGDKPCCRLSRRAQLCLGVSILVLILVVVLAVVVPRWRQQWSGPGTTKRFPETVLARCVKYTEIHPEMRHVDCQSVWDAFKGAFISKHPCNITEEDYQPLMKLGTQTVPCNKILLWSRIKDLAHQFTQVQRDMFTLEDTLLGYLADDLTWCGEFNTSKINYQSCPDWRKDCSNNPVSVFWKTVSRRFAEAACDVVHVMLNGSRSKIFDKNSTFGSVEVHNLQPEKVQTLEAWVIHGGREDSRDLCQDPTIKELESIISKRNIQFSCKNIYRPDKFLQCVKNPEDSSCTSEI
Method in brief: (§1)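 Inhibitors were titrated against purified CD38 hydrolysing NAD+ for 60 min at ambient temperature. Unconsumed substrate was quantified enzymatically via NADH-coupled resazurin reduction and fluorescence.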

[2] = biological target: T2, mouse CD38 (Mus musculus, UniProt P56528); experiment: mouse recombinant CD38 enzyme assay (hydrolysis of NAD+); format: biochemical; conditions: read-out: mCD38 BioChem IC50
T2 sequence (P56528 1-304): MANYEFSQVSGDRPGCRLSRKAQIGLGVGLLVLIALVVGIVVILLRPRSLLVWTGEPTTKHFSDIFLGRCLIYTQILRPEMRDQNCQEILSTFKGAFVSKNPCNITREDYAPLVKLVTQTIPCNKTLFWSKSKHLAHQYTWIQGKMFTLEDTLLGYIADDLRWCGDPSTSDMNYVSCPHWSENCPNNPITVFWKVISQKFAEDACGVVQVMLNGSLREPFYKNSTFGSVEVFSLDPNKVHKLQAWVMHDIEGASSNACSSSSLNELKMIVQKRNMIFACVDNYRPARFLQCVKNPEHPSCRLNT
Method in brief: as §1

[3] = biological target: T3, endogenous CD38 in HL60 cells (Homo sapiens, UniProt P28907); experiment: cellular CD38 assay in HL60 cells (cellular NAD levels); format: cell-based; conditions: all-trans retinoic acid, 24 hours, read-out: hCD38 HL60 ATRA NAD Cell Diaphorase IC50
T3 construct: endogenous in cells; host or cells: HL60 (leukemic cells, treated with all-trans retinoic acid)
T3 sequence (P28907 1-300): T1 sequence (P28907 1-300)
Method in brief: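 HL60 cells (20000/well) were treated with compound in DMSO for 24 h. Cellular NAD was then measured by an enzymatic cycling mix (alcohol dehydrogenase, diaphorase, 40 uM resazurin, 10 uM FMN, 3% ethanol, Triton X-100, pH 8.4).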

IC50 [1] [nM] | IC50 [2] [nM] | IC50 [3] [nM] | Compound
24 | 1 | 2300 | COCCO[C@H]1CC[C@H](NC(=O)c2cc(C)nc(-c3cncn3C)n2)CC1 [Compound 155, N-((1r,4r)-4-(2-methoxyethoxy)cyclohexyl)-6-methyl-2-(1-methyl-1H-imidazol-5-yl)pyrimidine-4-carboxamide]
1.6 | 1.2 | 303 | COc1cc(-n2ccnc2)nc(C(=O)Nc2ccc(C(F)F)nc2)n1 [Compound 210, N-(6-(difluoromethyl)pyridin-3-yl)-4-(1H-imidazol-1-yl)-6-methoxypyrimidine-2-carboxamide]
22 | 15 | 2250 | CC(C)c1cc(C(=O)Nc2ccc(C(F)F)nc2)nc(-n2ccnc2)n1 [Compound 169, N-(6-(difluoromethyl)pyridin-3-yl)-2-(1H-imidazol-1-yl)-6-isopropylpyrimidine-4-carboxamide]
14.6 | 9.9 | 1580 | O=C(Nc1ccc(C(F)F)nc1)c1cc(C2CCOCC2)nc(-n2ccnc2)n1 [Compound 195, N-(6-(difluoromethyl)pyridin-3-yl)-2-(1H-imidazol-1-yl)-6-(tetrahydro-2H-pyran-4-yl)pyrimidine-4-carboxamide]
2.4 | 0.7 | 655 | Cn1cncc1-c1nc(C(=O)Nc2ccc(OC(F)F)nc2)cc(C2CCOCC2)n1 [Compound 282, N-(6-(difluoromethoxy)pyridin-3-yl)-2-(1-methyl-1H-imidazol-5-yl)-6-(tetrahydro-2H-pyran-4-yl)pyrimidine-4-carboxamide]
207 | 58.7 | 5110 | CC(C)(O)[C@H]1CC[C@H](NC(=O)c2nccc(-n3ccnc3)n2)CC1 [Compound 251, N-((1r,4r)-4-(2-hydroxypropan-2-yl)cyclohexyl)-4-(1H-imidazol-1-yl)pyrimidine-2-carboxamide]
13.7 | 43.9 | 1130 | Cn1cncc1-c1ccnc(C(=O)N[C@H]2C[C@H](c3ccnc(C(F)(F)F)c3)C2)n1 [Compound 270, 4-(1-methyl-1H-imidazol-5-yl)-N-((1r,3r)-3-(2-(trifluoromethyl)pyridin-4-yl)cyclobutyl)pyrimidine-2-carboxamide]
8 | 4 | 1780 | CC(C)c1cc(C(=O)Nc2ccc(C(F)(F)F)nc2)nc(-c2cncn2C)n1 [Compound 174, 6-isopropyl-2-(1-methyl-1H-imidazol-5-yl)-N-(6-(trifluoromethyl)pyridin-3-yl)pyrimidine-4-carboxamide]
71.9 | 53.7 | 2470 | Cn1cncc1-c1ccnc(C(=O)N[C@H]2C[C@H](c3ccc(C(F)(F)F)nc3)C2)n1 [Compound 273, 4-(1-methyl-1H-imidazol-5-yl)-N-((1r,3r)-3-(6-(trifluoromethyl)pyridin-3-yl)cyclobutyl)pyrimidine-2-carboxamide]
288 | 74.8 | 4100 | CCO[C@H]1C[C@H](NC(=O)c2nccc(-c3cncn3C)n2)C1 [Compound 299, N-((1r,3r)-3-ethoxycyclobutyl)-4-(1-methyl-1H-imidazol-5-yl)pyrimidine-2-carboxamide]
375 | 82 | 11700 | COc1cc(C(=O)Nc2ccc(C(F)F)nc2)nc(-c2cncs2)c1 [Compound 163, N-(6-(Difluoromethyl)pyridin-3-yl)-4-methoxy-6-(thiazol-5-yl)picolinamide]
17 | 3 | 1620 | CO[C@H]1CC[C@H](NC(=O)c2cc(C)nc(-n3ccnc3)n2)CC1 [Compound 118, 2-(1H-imidazol-1-yl)-N-((1r,4r)-4-methoxycyclohexyl)-6-methylpyrimidine-4-carboxamide]
43.2 | 40.9 | 2380 | O=C(N[C@H]1C[C@H](c2ccc(F)cc2)C1)c1nccc(-n2ccnc2)n1 [Compound 238, N-((1r,3r)-3-(4-fluorophenyl)cyclobutyl)-4-(1H-imidazol-1-yl)pyrimidine-2-carboxamide]
4 | 1.6 | 410 | O=C(Nc1ccc(C(F)F)nc1)c1nc(C2CC2)cc(-n2ccnc2)n1 [Compound 205, 4-cyclopropyl-N-(6-(difluoromethyl)pyridin-3-yl)-6-(1H-imidazol-1-yl)pyrimidine-2-carboxamide]
30 | 4 | 2300 | COCCO[C@H]1CC[C@H](NC(=O)c2cc(C)nc(-n3ccnc3)n2)CC1 [Compound 156, 2-(1H-imidazol-1-yl)-N-((1r,4r)-4-(2-methoxyethoxy)cyclohexyl)-6-methylpyrimidine-4-carboxamide]

Second part, the compound before the results:

Compound | IC50 [1] [nM] | IC50 [2] [nM] | IC50 [3] [nM]
Cc1cc(C(=O)Nc2cccnc2)nc(-c2cncs2)c1 [Compound 35, 4-methyl-N-(pyridin-3-yl)-6-(thiazol-5-yl)picolinamide] | 210 | 68 | 3570
Cn1cncc1-c1ccnc(C(=O)Nc2ccc(C(F)(F)F)nc2)n1 [Compound 74, 4-(1-methyl-1H-imidazol-5-yl)-N-(6-(trifluoromethyl)pyridin-3-yl)pyrimidine-2-carboxamide] | 3 | 10 | 349
COCCO[C@H]1CC[C@H](NC(=O)c2ccc(F)c(-n3ccnc3)n2)CC1 [Compound 54, 5-fluoro-6-(1H-imidazol-1-yl)-N-(4-(2-methoxyethoxy)cyclohexyl)picolinamide] | 189 | 38 | 8280
O=C(N[C@H]1CC[C@H](C(F)F)CC1)c1cncc(-n2ccnc2)n1 [Compound 89, N-((1r,4r)-4-(difluoromethyl)cyclohexyl)-6-(1H-imidazol-1-yl)pyrazine-2-carboxamide] | 22 | 10 | 915
Cc1cc(C(=O)N[C@H]2CC[C@H](C(F)F)CC2)nc(-c2cncn2C)c1 [Compound 99, N-(4-(difluoromethyl)cyclohexyl)-4-methyl-6-(1-methyl-1H-imidazol-5-yl)picolinamide] | 80 | 7 | 5130
Cc1cc(C(=O)Nc2ccc(C(F)(F)F)nc2)nc(-n2ccnc2)n1 [Compound 117, 2-(1H-imidazol-1-yl)-6-methyl-N-(6-(trifluoromethyl)pyridin-3-yl)pyrimidine-4-carboxamide] | 4 | 1 | 350
O=C(Nc1cccnc1)c1ccnc(-n2ccnc2)n1 [Compound 37, 2-(1H-imidazol-1-yl)-N-(pyridin-3-yl)pyrimidine-4-carboxamide] | 4 | 6 | 339
O=C(Nc1ccc(C(F)F)nc1)c1ccnc(-c2cncs2)n1 [Compound 114, N-(6-(difluoromethyl)pyridin-3-yl)-2-(thiazol-5-yl)pyrimidine-4-carboxamide] | 173 | 150 | 4330
O=C(Nc1cccnc1)c1cc(C(F)(F)F)cc(-n2ccnc2)n1 [Compound 40, 6-(1H-imidazol-1-yl)-N-(pyridin-3-yl)-4-(trifluoromethyl)picolinamide] | 6 | 2 | 959
COC(=O)[C@H]1CC[C@H](NC(=O)c2ccnc(-c3cncn3C)n2)CC1 [Compound 107, methyl (1r,4r)-4-(2-(1-methyl-1H-imidazol-5-yl)pyrimidine-4-carboxamido)cyclohexane-1-carboxylate] | 9 | 2 | 1290
O=C(N[C@H]1CC[C@H](C(F)F)CC1)c1nccc(-n2ccnc2)n1 [Compound 73, N-((1r,4r)-4-(difluoromethyl)cyclohexyl)-4-(1H-imidazol-1-yl)pyrimidine-2-carboxamide] | 60 | 33 | 1990
Cc1ccc(-n2ccnc2)nc1C(=O)N[C@H]1CC[C@H](C(F)F)CC1 [Compound 101, N-(4-(difluoromethyl)cyclohexyl)-6-(1H-imidazol-1-yl)-3-methylpicolinamide] | 210 | 42 | 8310
COC(=O)[C@H]1CC[C@H](NC(=O)c2ccnc(-n3ccnc3)n2)CC1 [Compound 106, methyl (1r,4r)-4-(2-(1H-imidazol-1-yl)pyrimidine-4-carboxamido)cyclohexane-1-carboxylate] | 22 | 9 | 1800
